# Reference: patent publication US20120035268A1, “SPHINGO-GUANIDINES AND THEIR USE AS INHIBITORS OF SPHINGOSINE KINASE” (priority 2008, published 2012)
# Counter-ions that a name gives are not always drawn. Like-named read-outs stand apart in the source and are kept apart here.
# Experiments:
# MCF7 cells = assay: Endogenous ceramide level in cells after treatment; type: cell-based, human; details: 24 hour treatment, 0-25 μM, FIG. 7
# Description: The administration of guanidino-sphingosines to mammalian cells at concentrations capable of inhibiting SK1 or SK2 were also found to increase the level of endogenous Cer in the cells.
# [1] = biological target: T1, sphingosine kinase 2 (SK2) (Homo sapiens, UniProt Q9NRA0); assay: In vitro inhibition of purified recombinant sphingosine kinase 2; type: biochemical; details: purified recombinant enzyme
# T1 sequence (Q9NRA0 1-654): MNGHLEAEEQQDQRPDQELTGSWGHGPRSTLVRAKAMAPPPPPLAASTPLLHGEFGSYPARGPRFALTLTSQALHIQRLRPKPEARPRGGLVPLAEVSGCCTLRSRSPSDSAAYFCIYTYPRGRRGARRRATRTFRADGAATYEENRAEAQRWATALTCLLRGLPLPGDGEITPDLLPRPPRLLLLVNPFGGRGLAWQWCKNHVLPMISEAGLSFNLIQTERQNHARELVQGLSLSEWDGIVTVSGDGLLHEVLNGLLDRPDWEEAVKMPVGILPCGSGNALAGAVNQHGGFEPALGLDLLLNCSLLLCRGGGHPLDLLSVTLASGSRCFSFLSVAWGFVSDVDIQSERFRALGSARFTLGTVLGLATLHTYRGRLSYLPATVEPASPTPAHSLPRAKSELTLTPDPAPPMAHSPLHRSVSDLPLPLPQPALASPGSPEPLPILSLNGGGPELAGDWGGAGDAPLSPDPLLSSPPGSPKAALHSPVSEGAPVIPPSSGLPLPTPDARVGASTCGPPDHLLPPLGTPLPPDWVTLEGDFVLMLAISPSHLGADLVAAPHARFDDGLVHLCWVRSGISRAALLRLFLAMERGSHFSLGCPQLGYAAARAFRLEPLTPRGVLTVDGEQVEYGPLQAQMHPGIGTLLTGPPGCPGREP
# [2] = biological target: sphingosine kinase 1 (SK1) (Homo sapiens, UniProt Q9NYA1); assay: In vitro inhibition of purified recombinant sphingosine kinase 1; type: biochemical; details: purified recombinant enzyme
# Sequence of sphingosine kinase 1 (SK1) (Q9NYA1 whole entry, species assumed): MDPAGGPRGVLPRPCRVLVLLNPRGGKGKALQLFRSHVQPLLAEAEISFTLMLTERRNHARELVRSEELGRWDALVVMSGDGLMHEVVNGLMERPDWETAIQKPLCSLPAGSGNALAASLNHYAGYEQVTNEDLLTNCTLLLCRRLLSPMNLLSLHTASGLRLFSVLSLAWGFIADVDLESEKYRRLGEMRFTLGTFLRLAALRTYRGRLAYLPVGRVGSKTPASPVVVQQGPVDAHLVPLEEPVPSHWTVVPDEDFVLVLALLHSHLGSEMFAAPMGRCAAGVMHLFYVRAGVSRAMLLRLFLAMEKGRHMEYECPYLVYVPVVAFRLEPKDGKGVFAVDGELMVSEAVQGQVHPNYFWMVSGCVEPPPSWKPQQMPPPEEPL
# [3] = test system: prostate cancer (DU145) cells over-expressing acid ceramidase; assay: BD FALCON FLUOROBLOK migration assay; type: cell-based, human; details: 5 μM pretreatment overnight; 16/24 hours incubation; FIG. 8
# Description: NT represents non-treated cells.
# The presently disclosed guanidino-sphingosines were determined to be capable of inhibiting cell migration of cancer cells overexpressing acid ceramidase. The BD™ FALCON™ (Becton Dickinson and Company, Franklin Lakes, N.J., United States of America) migration assay (using FLUOROBLOK™ polyethylene terphthalate (PET) inserts (8.0 μm)) was performed with prostate cancer (DU145) cells over-expressing acid ceramidase. […] After labeling the cells with carboxyfluorescein diacetate succinimidyl ester fluorscent dye (CFMDA), the cells were seeded on the top well of BDTM FLUOROBLOK™ PET membrane collagen-coated inserts. The negative control consisted of serum free media loaded in the bottom well and 10% FCS-enriched media was used as the positive control. After 16/24 hours incubation, the plate was read from the bottom (485/530 nm) and fluorescence was quantified.
IC50 [1],IC50 ([2]; read-out: In Vitro IC50 on Sphingosine Kinase 1),IC50 ([2]; read-out: IC50 on SK1),Structure (SMILES),endogenous C16-ceramide levels (MCF7 cells),migration rate of DU145 cells [3]
740 nM,420 nM,–,"CCCCCCCCCCCCC/C=C/[C@@H](O)[C@H](CO)NC(=N)N [LCL146, D-erythro-2-N-(1′-carboxamidino)-sphingosine hydrochloride]",elevation,–
300 nM,–,40 nM,"CCCCCCCCCCCCC/C=C/[C@H](O)[C@@H](CO)NC(=N)N [LCL351, L-erythro-2-N-(1′-carboxamidino)-sphingosine hydrochloride]",elevation,decreases the migration rate
